Assay results published in US20230270713A1, “Administration of Resiniferatoxin For Treatment of Bladder Pain or Bladder Cancer” (Sorrento Therapeutics, Inc., priority 2020, published 2023).

Key:
[1] = tested on: dogs with bladder transitional cell carcinoma; assay: Change in lower urinary tract signs in dogs with bladder TCC (Example F); assay type: in vivo, dog; settings: for Improvement of at Least 1 Score, dogs n/N / Improvement of at Least 1 Score, percent of dogs / Improvement of at Least 2 Scores, dogs n/N / Improvement of at Least 2 Scores, percent of dogs / Improvement in at least 1 score (lower urinary tract signs), dogs n/N / Improvement in at least 1 score, percent of dogs / Improvement in at least 2 scores (lower urinary tract signs), dogs n/N / Improvement in at least 2 scores, percent of dogs: dogs with bladder TCC; for Improvement in at least 1 score (lower urinary tract signs), dogs n/N / Improvement in at least 1 score, percent of dogs / Improvement in at least 2 scores (lower urinary tract signs), dogs n/N / Improvement in at least 2 scores, percent of dogs: all RTX doses (25-100 μg)
Experimental: Pre-treatment with diphenhydramine HCl intramuscular (2 mg/kg) was administered 30-45 minutes prior to RTX administration. Enrolled dogs were anesthetized and were monitored by auscultation and chest movement observation. Heart rate and oxygenation were monitored using a pulse oximeter throughout the duration of anesthesia. Blood pressure was monitored. Body temperature was maintained using a heated water blanket or equivalent thermal barrier (e.g., Vetko). Lactated Ringers Solution (LRS), or other medically appropriate fluid therapy, were used to maintain adequate hydration (approximately 2 mL/kg/hr intravenous (IV)) and a fluid bolus of LRS (2-5 mL/kg IV) as needed.
RTX was administered as a one-time treatment into the bladder on Day 0 with the option of repeating RTX at a future study day. A Foley urinary catheter was placed using a sterile standard technique. An abdominal ultrasound was concurrently performed to ensure that the tip of the catheter was in the bladder lumen. Urine was removed using a catheter tipped syringe.
RTX was diluted in 0.9% NaCl and then infused into the bladder. The catheter was then flushed with 5-6 mL of 0.9% NaCl to ensure the entire IVP volume was administered. The Foley catheter was capped and remained in place for a period of 30 minutes post-infusion. The bladder was then emptied prior to removal of the Foley catheter. The timing of recovery was managed on an individual basis, but it was recommended to initiate recovery approximately 10 minutes after RTX infusion.
RTX total dose ranged from 25-100 μg (1.17-5.21 μg/kg). RTX was instilled at concentration of 1.0 μg/mL 2.0 μg/mL or 2.5 μg/mL.
Primary effectiveness variables: Evaluations of lower urinary tract signs, as reported by the owner, were used as the primary effectiveness endpoint for the study. The character of urination, frequency of urination (day), frequency of urination (night) and blood in urine (Knapp, 2010) were monitored. Blood in urine was assessed by owner through daily collection of first morning sample and the owner completed the “Owner urine collection log.” Comparisons were made for each parameter between Day 0 and subsequent study visits on Days 7 (±2), 14 (±2), 28 (±2), 56 (±2) and 84 (±2). Treatment success was defined as at least one grade improvement for each parameter.
At each study visit, the investigator graded lower urinary tract signs with input from the owner. Improvement in 1 or 2 grades are summarized by total RTX dose in Table 16 and then comparing those dogs receiving an RTX dose <3 μg/kg and 3 μg/kg in Table 17.

[2] = Local tolerance and clinical observations after intravesical RTX in dogs; assay type: in vivo, dog; settings: single 25 or 250 mcg intravesical
Experimental: Local tolerance and the pharmacokinetic (PK), and toxicokinetic (TK) profile of RTX in dogs was determined after a single instillation of RTX into the bladder of dogs (n=6). The RTX formulations were prepared using aseptic techniques in a biological safety cabinet (BSC) by mixing the appropriate amount of diluent with the appropriate amount of RTX. Dosing formulation concentrations used were 1 and 10 mcg/mL.
RTX was administered via intravesical instillation into the urinary bladder. The animals were given a single dose of 25 or 250 mcg/dose in a total volume of 25 mL on Day 1 over a period of 1 hour (±5 minutes). RTX and diluent were administered to the dogs under general anesthesia via a Foley catheter placed into the bladder for 1 hour (±5 minutes).
Observations for morbidity, mortality, injury, and the availability of food and water were conducted twice daily for all animals. Observations for clinical signs for all animals were conducted on Day 2. The observations included evaluation of the skin, fur, eyes, ears, nose, oral cavity, thorax, abdomen, external genitalia, limbs and feet, respiratory and circulatory effects, autonomic effects such as salivation, and nervous system effects including tremors, convulsions, reactivity to handling, and unusual behavior.

[3] = Safety monitoring in FIC cats; assay type: in vivo, cat
Experimental: As a way of monitoring the safety of the experiment for the enrolled cats, a physical examination was performed on the cats on Days 14 and 28. Measurements for body weight, body temperature, heart rate and respiratory rate were recorded. Body weight was collected for all cohorts, while the remaining variables were collected for Cohort 1, which received the highest total dose of RTX (25 μg/25 mL). […] Results were also collected for complete blood count (CBC), serum chemistry, urinalysis and culture.

[4] = dogs with bladder TCC evaluable at Days 14-84

SMILES: C=C(C)[C@]12C[C@@H](C)[C@@]34O[C@](Cc5ccccc5)(O[C@@H]1[C@@H]3C=C(COC(=O)Cc1ccc(O)c(OC)c1)C[C@]1(O)C(=O)C(C)=C[C@@H]41)O2 [RTX, resiniferatoxin]
- dogs with improvement in at least 1 urinary symptom grade at each visit [1, 4]: more than 50%
- dogs with improvement in at least 2 grades at each visit [1, 4]: more than 40%
- Improvement of at Least 1 Score, dogs n/N ([1]; RTX <3 μg/kg, Day 7): 4/7
- Improvement of at Least 1 Score, percent of dogs ([1]; RTX <3 μg/kg, Day 7): (57.1%)
- Improvement of at Least 2 Scores, dogs n/N ([1]; RTX <3 μg/kg, Day 7): 2/7
- Improvement of at Least 2 Scores, percent of dogs ([1]; RTX <3 μg/kg, Day 7): (28.6%)
- Improvement of at Least 1 Score, dogs n/N ([1]; RTX <3 μg/kg, Day 14): 5/7
- Improvement of at Least 1 Score, percent of dogs ([1]; RTX <3 μg/kg, Day 14): (71.4%)
- Improvement of at Least 2 Scores, dogs n/N ([1]; RTX <3 μg/kg, Day 14): 3/7
- Improvement of at Least 2 Scores, percent of dogs ([1]; RTX <3 μg/kg, Day 14): (42.9%)
- Improvement of at Least 1 Score, dogs n/N ([1]; RTX <3 μg/kg, Day 28): 4/5
- Improvement of at Least 1 Score, percent of dogs ([1]; RTX <3 μg/kg, Day 28): (80.0%)
- Improvement of at Least 2 Scores, dogs n/N ([1]; RTX <3 μg/kg, Day 28): 3/5
- Improvement of at Least 2 Scores, percent of dogs ([1]; RTX <3 μg/kg, Day 28): (60.0%)
- Improvement of at Least 1 Score, dogs n/N ([1]; RTX <3 μg/kg, Day 56): 4/5
- Improvement of at Least 1 Score, percent of dogs ([1]; RTX <3 μg/kg, Day 56): (80.0%)
- Improvement of at Least 2 Scores, dogs n/N ([1]; RTX <3 μg/kg, Day 56): 3/5
- Improvement of at Least 2 Scores, percent of dogs ([1]; RTX <3 μg/kg, Day 56): (60.0%)
- Improvement of at Least 1 Score, dogs n/N ([1]; RTX <3 μg/kg, Day 84): 2/2
- Improvement of at Least 1 Score, percent of dogs ([1]; RTX <3 μg/kg, Day 84): (100.0%)
- Improvement of at Least 2 Scores, dogs n/N ([1]; RTX <3 μg/kg, Day 84): 2/2
- Improvement of at Least 2 Scores, percent of dogs ([1]; RTX <3 μg/kg, Day 84): (100.0%)
- Improvement of at Least 1 Score, dogs n/N ([1]; RTX >= 3 μg/kg, Day 7): 3/7
- Improvement of at Least 1 Score, percent of dogs ([1]; RTX >= 3 μg/kg, Day 7): (42.9%)
- Improvement of at Least 2 Scores, dogs n/N ([1]; RTX >= 3 μg/kg, Day 7): 2/7
- Improvement of at Least 2 Scores, percent of dogs ([1]; RTX >= 3 μg/kg, Day 7): (28.6%)
- Improvement of at Least 1 Score, dogs n/N ([1]; RTX >= 3 μg/kg, Day 14): 5/7
- Improvement of at Least 1 Score, percent of dogs ([1]; RTX >= 3 μg/kg, Day 14): (71.4%)
- Improvement of at Least 2 Scores, dogs n/N ([1]; RTX >= 3 μg/kg, Day 14): 3/7
- Improvement of at Least 2 Scores, percent of dogs ([1]; RTX >= 3 μg/kg, Day 14): (42.9%)
- Improvement of at Least 1 Score, dogs n/N ([1]; RTX >= 3 μg/kg, Day 28): 4/6
- Improvement of at Least 1 Score, percent of dogs ([1]; RTX >= 3 μg/kg, Day 28): (66.7%)
- Improvement of at Least 2 Scores, dogs n/N ([1]; RTX >= 3 μg/kg, Day 28): 2/6
- Improvement of at Least 2 Scores, percent of dogs ([1]; RTX >= 3 μg/kg, Day 28): (33.3%)
- Improvement of at Least 1 Score, dogs n/N ([1]; RTX >= 3 μg/kg, Day 56): 3/5
- Improvement of at Least 1 Score, percent of dogs ([1]; RTX >= 3 μg/kg, Day 56): (60.0%)
- Improvement of at Least 2 Scores, dogs n/N ([1]; RTX >= 3 μg/kg, Day 56): 2/5
- Improvement of at Least 2 Scores, percent of dogs ([1]; RTX >= 3 μg/kg, Day 56): (40.0%)
- Improvement of at Least 1 Score, dogs n/N ([1]; RTX >= 3 μg/kg, Day 84): 2/5
- Improvement of at Least 1 Score, percent of dogs ([1]; RTX >= 3 μg/kg, Day 84): 40.0%
- Improvement of at Least 2 Scores, dogs n/N ([1]; RTX >= 3 μg/kg, Day 84): 1/5
- Improvement of at Least 2 Scores, percent of dogs ([1]; RTX >= 3 μg/kg, Day 84): 20.0%
- Improvement in at least 1 score (lower urinary tract signs), dogs n/N ([1]; Day 14): 10/14
- Improvement in at least 1 score, percent of dogs ([1]; Day 14): 71.4%
- Improvement in at least 2 scores (lower urinary tract signs), dogs n/N ([1]; Day 14): 7/14
- Improvement in at least 2 scores, percent of dogs ([1]; Day 14): 50.0%
- Improvement in at least 1 score (lower urinary tract signs), dogs n/N ([1]; Day 28): 8/11
- Improvement in at least 1 score, percent of dogs ([1]; Day 28): 72.7%
- Improvement in at least 2 scores (lower urinary tract signs), dogs n/N ([1]; Day 28): 5/11
- Improvement in at least 2 scores, percent of dogs ([1]; Day 28): 45.5%
- Improvement in at least 1 score (lower urinary tract signs), dogs n/N ([1]; Day 56): 7/10
- Improvement in at least 1 score, percent of dogs ([1]; Day 56): 70.0%
- Improvement in at least 2 scores (lower urinary tract signs), dogs n/N ([1]; Day 56): 5/10
- Improvement in at least 2 scores, percent of dogs ([1]; Day 56): 50.0%
- Improvement in at least 1 score (lower urinary tract signs), dogs n/N ([1]; Day 84): 4/7
- Improvement in at least 1 score, percent of dogs ([1]; Day 84): 57.1%
- Improvement in at least 2 scores (lower urinary tract signs), dogs n/N ([1]; Day 84): 3/7
- Improvement in at least 2 scores, percent of dogs ([1]; Day 84): 42.9%
- dogs showing improved urine scores after a 2nd RTX administration ([1]; of the 6 dogs with bladder TCC that received a 2nd RTX administration): 1 dog
- Tolerability, detailed clinical observations, body weight [2]: well tolerated and did not result in any detailed clinical observations or changes in body weight
- complete blood count (CBC), serum chemistry, urinalysis and culture [3]: No significant changes were observed
- Adverse events in other cohorts ([3]; Cohorts 2-4): considered unrelated to the treatment or not serious
- body weight, body temperature, heart rate and respiratory rate ([3]; Days 14 and 28, body weight all cohorts, other variables Cohort 1 (25 μg/25 mL)): No clinically significant changes were observed
- Tolerability ([3]; all doses, at administration and through 28-day follow-up): overall well tolerated
- serious adverse events considered related to the treatment ([3]; death of a Cohort 1 cat (25 μg/25 mL)): One serious adverse event
